Measurements reported in ChEMBL document CHEMBL3272190, “(2-exo-3-endo)-2-Aryltropane-3-carboxylic esters, a new class of narcotic antagonists” (J Med Chem, 1978).
Calls of active or inactive are those of the source. No cut-off for these calls is given here.

What was measured:
Mus musculus [1] = experiment: Induction of hyperactiveness in mouse at 30 mg/kg, sc; type: organism-based; design: dose 30 mg/kg, route subcutaneous; settings: in vivo
Rattus norvegicus [2] = experiment: Narcotic analgesic activity in sc dosed rat assessed as inhibition of phenazocine-induced effect by D'Amour-Smith tail flick test; type: functional
Mus musculus [3] = experiment: Antiwrithing activity in sc dosed mouse assessed as prevention of acetylcholine-induced abdominal constriction response; type: functional; settings: Abdomen
Rattus norvegicus [4] = experiment: Analgesic activity in rat assessed as inhibition of intraarterial bradykinin-induced effect up to 100 mg/kg, sc; type: functional; design: scale not given: the % may be the effect or the level left
Mus musculus [5] = experiment: Antiwrithing activity in sc dosed mouse assessed as prevention of phenyl-p-benzoquinone-induced abdominal constriction response; type: functional; settings: Abdomen
Rattus norvegicus [6] = experiment: Induction of hyperactiveness in rat at 120 mg/kg, sc; type: organism-based; design: dose 120 mg/kg, route subcutaneous; settings: in vivo
Rattus norvegicus [7] = experiment: Narcotic analgesic activity in po dosed rat assessed as inhibition of phenazocine-induced effect by D'Amour-Smith tail flick test; type: functional
Rattus norvegicus [8] = experiment: Induction of tremors in rat at 120 mg/kg, sc; type: organism-based; design: dose 120 mg/kg, route subcutaneous; settings: in vivo
Mus musculus [9] = experiment: Induction of hyperactiveness in mouse at 75 mg/kg, sc; type: organism-based; design: dose 75 mg/kg, route subcutaneous; settings: in vivo
Mus musculus [10] = experiment: Induction of depression in mouse at 35 mg/kg, sc; type: organism-based; design: dose 35 mg/kg, route subcutaneous; settings: in vivo
Mus musculus [11] = experiment: Induction of tremors in mouse at 35 mg/kg, sc; type: organism-based; design: dose 35 mg/kg, route subcutaneous; settings: in vivo
Rattus norvegicus [12] = experiment: Induction of convulsion in rat at 120 mg/kg, sc; type: organism-based; design: dose 120 mg/kg, route subcutaneous; settings: in vivo
Rattus norvegicus [13] = experiment: Toxicity in rat assessed as mortality at 160 mg, sc; type: organism-based; settings: in vivo
Mus musculus [14] = experiment: Induction of convulsion in mouse at 100 mg/kg, sc; type: organism-based; design: dose 100 mg/kg, route subcutaneous; settings: in vivo
Rattus norvegicus [15] = experiment: Narcotic analgesic activity in rat assessed as inhibition of phenazocine-induced effect at 80 mg, sc by D'Amour-Smith tail flick test; type: functional
Mus musculus [16] = experiment: Antiwrithing activity in po dosed mouse assessed as prevention of acetylcholine-induced abdominal constriction response; type: functional; settings: Abdomen
Rattus norvegicus [17] = experiment: Induction of rigidity in rat at 120 mg/kg, sc; type: organism-based; design: dose 120 mg/kg, route subcutaneous; settings: in vivo
Rattus norvegicus [18] = experiment: Analgesic activity in rat assessed as inhibition of intraarterial bradykinin-induced effect at 10 mg/kg, sc; type: functional, organism-based; design: dose 10 mg/kg
Mus musculus [19] = experiment: Induction of depression in mouse at 75 mg/kg, sc; type: organism-based; design: dose 75 mg/kg, route subcutaneous; settings: in vivo
Rattus norvegicus [20] = experiment: Narcotic analgesic activity in rat assessed as inhibition of phenazocine-induced effect at 10 mg, ip by D'Amour-Smith tail flick test; type: functional, organism-based
Rattus norvegicus [21] = experiment: Toxicity in rat assessed as mortality at >10 mg, ip; type: organism-based; settings: in vivo

In the case of `COC(=O)[C@H]1C[C@H]2CC[C@H]([C@H]1c1ccc(O)cc1)N2C` (racemic), the Activity (Mus musculus [1]) is reported as “Toxic”, the AD50 (Rattus norvegicus [2]) is reported as >80 mg/kg and the ED50 (Mus musculus [3]) is reported as 7.1 mg/kg.

`COC(=O)[C@@H]1C[C@H]2CC[C@H]([C@H]1c1cccc(O)c1)N2C` (racemic) was tested, and the Activity (Rattus norvegicus [4]; route subcutaneous) was 0%, the AD50 (Rattus norvegicus [2]) was >80 mg/kg and the ED50 (Mus musculus [3]) was 24 mg/kg. For the same compound, the ED50 (Mus musculus [5]) was 100 mg/kg.

For `COC(=O)[C@H]1C[C@H]2CC[C@H]([C@H]1c1cccc(O)c1)N2C` (racemic), the Activity (Rattus norvegicus [6]) was “Toxic”, the AD50 (Rattus norvegicus [7]) was 1.8 mg/kg and the Activity (Rattus norvegicus [8]) was “Toxic”. The Activity (Mus musculus [9]) was “Toxic”, the AD50 (Rattus norvegicus [2]) was 0.37 mg/kg and the ED50 (Mus musculus [3]) was 16 mg/kg. It also gave an ED50 (Mus musculus [5]) of 75 mg/kg.

For `COC(=O)[C@H]1C[C@H]2CC[C@H]([C@H]1c1cccc(OC)c1)N2C` (racemic), the Activity (Mus musculus [10]) was “Toxic”, the AD50 (Rattus norvegicus [2]) was >80 mg/kg and the ED50 (Mus musculus [3]) was 19 mg/kg. For the same compound, the Activity (Mus musculus [11]) was “Toxic”.

In the case of `COC(=O)[C@@H]1C[C@H]2CC[C@H]([C@H]1Cc1ccccc1)N2C` (racemic), the Activity (Mus musculus [9]) is reported as “Toxic”, the Activity (Rattus norvegicus [12]) is reported as “Toxic” and the AD50 (Rattus norvegicus [2]) is reported as >80 mg/kg. It also gave an ED50 (Mus musculus [3]) of 5.8 mg/kg.

With `COC(=O)[C@H]1C[C@H]2CC[C@H]([C@H]1Cc1ccccc1)N2C` (racemic) the Activity (Rattus norvegicus [13]) was “Toxic”, the Activity (Mus musculus [14]) was “Toxic” and the Activity (Rattus norvegicus [12]) was “Toxic”. For the same compound, the ED50 (Rattus norvegicus [2]; Rattus norvegicus, Tail, sc) was 54 mg/kg, the ED50 (Mus musculus [3]) was 4.4 mg/kg and the “inhibition (INH)” value (Rattus norvegicus [15]) was 69%. The ED50 (Mus musculus [5]) was 20 mg/kg.

For `COC(=O)[C@@H]1C[C@H]2CC[C@H]([C@H]1c1cccs1)N2C` (racemic), the Activity (Rattus norvegicus [4]) was “Active”, the ED50 (Mus musculus [16]) was 35 mg/kg and the Activity (Rattus norvegicus [8]) was “Toxic”. The Activity (Rattus norvegicus [17]) was “Toxic”, the Activity (Rattus norvegicus [12]) was “Toxic” and the AD50 (Rattus norvegicus [2]) was >80 mg/kg. For the same compound, the ED50 (Mus musculus [3]) was 12 mg/kg.

In the case of `COC(=O)[C@@H]1C[C@H]2CC[C@H]([C@H]1c1ccc[nH]1)N2C` (racemic), the ED50 (Mus musculus [16]) is reported as 42 mg/kg, the AD50 (Rattus norvegicus [2]) is reported as 56 mg/kg and the Activity (Rattus norvegicus [18]) is reported as “inactive”. It also gave an ED50 (Mus musculus [3]) of 13 mg/kg.

For `COC(=O)[C@H]1CCN(C)C[C@H]1c1ccccc1` (relative stereo), the Activity (Mus musculus [19]) was “Toxic”, the Activity (Rattus norvegicus [20]) was “inactive” and the Activity (Rattus norvegicus [21]) was “Toxic”. The ED50 (Mus musculus [3]) was 16 mg/kg.

`COC(=O)[C@H]1CCN(C)C[C@@H]1c1ccccc1` (relative stereo) was tested, and the Activity (Mus musculus [19]) was “Toxic”, the Activity (Rattus norvegicus [20]) was “inactive” and the Activity (Rattus norvegicus [21]) was “Toxic”. For the same compound, the ED50 (Mus musculus [3]) was 16 mg/kg.

Compound `COC(=O)[C@@H]1CCN(C)C[C@@H]1c1cccs1` (relative stereo) has an AD50 (Rattus norvegicus [2]) of 49 mg/kg.

For `COC(=O)[C@H]1CCN(C)C[C@@H]1c1cccs1` (relative stereo), the AD50 (Rattus norvegicus [2]) was 5.6 mg/kg.

Work on `CCOC(=O)C1(c2ccccc2)CCN(C)CC1` [MEPERIDINE] yielded an AD50 (Rattus norvegicus [7]) of 25 mg/kg and an AD50 (Rattus norvegicus [2]) of 19 mg/kg.

`CN1CC[C@]23c4c5ccc(O)c4O[C@H]2[C@@H](O)C=C[C@H]3[C@H]1C5` [MORPHINE] was tested, and the AD50 (Rattus norvegicus [7]) was 13 mg/kg and the AD50 (Rattus norvegicus [2]) was 29 mg/kg.

`C=CCN1CC[C@]23c4c5ccc(O)c4O[C@H]2[C@@H](O)C=C[C@H]3[C@H]1C5` [NALORPHINE] showed an AD50 (Rattus norvegicus [7]) of 6 mg/kg, an AD50 (Rattus norvegicus [2]) of 0.1 mg/kg and an ED50 (Mus musculus [5]) of 15 mg/kg.

Compound `C=CCN1CC[C@]23c4c5ccc(O)c4O[C@H]2C(=O)CC[C@@]3(O)[C@H]1C5` [NALOXONE] has an AD50 (Rattus norvegicus [2]) of 0.008 mg/kg, an ED50 (Mus musculus [3]) of 60 mg/kg and an ED50 (Mus musculus [5]) of 103 mg/kg.
